Drawing on publication PMC8294059, “Identification and Immune Assessment of T Cell Epitopes in Five Plasmodium falciparum Blood Stage Antigens to Facilitate Vaccine Candidate Selection and Optimization” (Frontiers in Immunology, 2021), this text covers IC50 for six compounds.

One assay has as its target HLA-B*0702 (Homo sapiens, UniProt P01889). Briefly: In vitro class I HLA binding assay (fluorescence polarization competition). The following applies: allele B*0702. The protocol: A cell-free class I HLA binding assay that allows for in vitro quantification of peptide-HLA binding affinity in a competition format was used. In this assay, a fluorescently labeled, high binding, control peptide is loaded onto 384-well ½-area plates along with unlabeled experimental peptides. To remove endogenous peptides and render the HLA A and B molecules receptive to binding, HLA is heated at 53°C for 15 minutes and immediately added to the assay. The mixture is then allowed to stand for three days. […] Binding of experimental peptides is expressed as the percent inhibition of the labeled control peptide (experimental fluorescence / control fluorescence, multiplied by 100). The percent inhibition values for each experimental peptide (across a range of molar concentrations) are used to calculate the concentration which inhibits 50% of the labeled control peptide’s specific binding. This value is referred to as the peptide’s IC50.
For orientation: Polarisation of emitted light reports the rotation of a fluorescent probe.

For a further assay, the target named is T1, HLA-DRB1*0101 (Homo sapiens, UniProt P01903+P01911, A100R/D57E/F55L/F60I/F76Y/I96L/L162R/M171V/P40L/Q125E/R42F/V115G/Y59C).
T1 construct: purchased
Nature of the assay: biochemical. The format is binding. As to conditions: binding inhibition assay; NB = non-binder (no dose-dependent inhibition); read-out: DRB1*0101 IC50. In short, it runs like this: (§1)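 HLA-peptide complexes are captured with anti-HLA-DR antibody, and bound reference is quantified by europium-probe time-resolved fluorescence.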

Another assay concerns the target T2, HLA-DRB1*0401 (Homo sapiens, UniProt P01903+P01911, A100K/A169T/F76Y/I96L/K127E/L162R/M171V/N62H/P40V/Q125Y/R42H/S133A/S149N/S66Y/V115G/V209L/W38E).
T2 construct: purchased
Nature of the assay: biochemical. It is filed as binding. The following applies: binding inhibition assay; NB = non-binder (no dose-dependent inhibition); read-out: DRB1*0401 IC50. In short, it runs like this:
as §1

In the next assay the target is HLA-DRB1*0701 (Homo sapiens, UniProt P01903+P01911, A100R/A102G/A103Q/D57E/D86V/E43K/F76Y/K127E/L162R/M171V/P40G/Q125H/Q99D/R33Q/R42Y/R54Q/S133A/S66F/T210M/V115G/Y107V/Y59L/Y89S). Nature of the assay: biochemical. The format is binding. As to conditions: binding inhibition assay; NB = non-binder (no dose-dependent inhibition); read-out: DRB1*0701 IC50. In a few lines:
as §1

The target of another assay is HLA-DRB1*0801 (Homo sapiens, UniProt P01903+P01911, A100R/A103L/A169T/D86S/F76Y/H45Y/I96F/K41T/L162R/M171V/P40S/Q125H/Q178H/Q39Y/Q99D/R218S/R42G/S66Y/V115G/W38E). Nature of the assay: biochemical. It is filed as binding. As to conditions: binding inhibition assay; NB = non-binder (no dose-dependent inhibition); read-out: DRB1*0801 IC50. In short, it runs like this:
as §1

Another assay has as its target HLA-DRB1*1101 (Homo sapiens, UniProt P01903+P01911, A100R/A169T/A87E/I96F/K41T/L162R/M171V/P40S/Q125H/Q178H/Q39Y/Q99D/R42S/S66Y/T262R/V115G/W38E). Nature of the assay: biochemical. The format is binding. The following applies: binding inhibition assay; NB = non-binder (no dose-dependent inhibition); read-out: DRB1*1101 IC50. In a few lines: as §1
For a further assay, the target named is HLA-DRB1*1301 (Homo sapiens, UniProt P01903+P01911, A100E/A169T/K41T/L162R/M171V/P40S/Q125H/Q178H/Q39Y/Q99D/R42S/S66N/T262R/W38E/Y61H). Briefly: biochemical. It is filed as binding. As to conditions: binding inhibition assay; NB = non-binder (no dose-dependent inhibition); read-out: DRB1*1301 IC50. In short, it runs like this: as §1
The target in a further assay is T3, HLA-DRB1*1501 (Homo sapiens, UniProt P01903+P01911).
T3 construct: purchased
Briefly: biochemical. It is filed as binding. The following applies: binding inhibition assay; NB = non-binder (no dose-dependent inhibition); read-out: DRB1*1501 IC50. In a few lines: as §1

Where [1] appears, read: fluorescence polarization competition, read-out: IC50 (nM), in vitro HLA binding affinity.

Where two headings read alike, the source gives them in different places. Where a SMILES comes first, the peptide text is derived from it.

As to `CC[C@H](C)[C@H](NC(=O)[C@@H]1CCCN1C(=O)[C@@H](N)Cc1c[nH]cn1)C(=O)N[C@@H](CCC(=O)O)C(=O)N[C@H](C(=O)N[C@@H](CCC(=O)O)C(=O)N[C@@H](CC(N)=O)C(=O)N[C@@H](CC(N)=O)C(=O)N[C@@H](Cc1ccccc1)C(=O)O)C(C)C` [AMA1_433] (H-HPIEVENNF-OH), the IC50 at HLA-B*0702 (setting [1]) is 310000 nM.
Turning to `CC[C@H](C)[C@H](N)C(=O)N1CCC[C@H]1C(=O)N[C@@H](Cc1ccccc1)C(=O)N[C@@H](Cc1c[nH]cn1)C(=O)N[C@@H](CCCCN)C(=O)N[C@@H](CCCCN)C(=O)N[C@@H](Cc1ccccc1)C(=O)N[C@H](C(=O)N[C@@H](CO)C(=O)N[C@@H](Cc1ccccc1)C(=O)O)[C@@H](C)CC` [CYRPA_003] (H-IPFHKKFISF-OH), the IC50 on HLA-B*0702 (setting [1]) came to 21900 nM.
As to `CC[C@H](C)[C@H](NC(=O)[C@H](CC(N)=O)NC(=O)[C@H](CC(=O)O)NC(=O)[C@H](CC(N)=O)NC(=O)[C@@H]1CCCN1C(=O)[C@@H](N)CO)C(=O)N[C@@H](CC(N)=O)C(=O)N[C@H](C(=O)N[C@H](C(=O)O)[C@@H](C)O)C(C)C` [EBA175_0979] (H-SPNDNINVT-OH), the IC50 at HLA-B*0702 (cell-free competition, fluorescence polarization at 72 hours, Non-binder = no dose-dependent inhibition, read-out: IC50) turned out to be 36100 nM.
Consider `CC[C@H](C)[C@H](NC(=O)[C@H](CCCCN)NC(=O)[C@H](CCCCN)NC(=O)[C@H](CCCCN)NC(=O)[C@H](CC(C)C)NC(=O)[C@H](Cc1ccc(O)cc1)NC(=O)[C@@H](NC(=O)[C@@H](NC(=O)[C@@H](NC(=O)[C@H](Cc1c[nH]cn1)NC(=O)[C@H](Cc1ccccc1)NC(=O)[C@@H](NC(=O)[C@H](CCC(=O)O)NC(=O)[C@H](CC(N)=O)NC(C)=O)[C@@H](C)CC)[C@@H](C)O)[C@@H](C)CC)[C@@H](C)CC)C(=O)NCC(=O)N[C@@H](CC(N)=O)C(=O)N[C@@H](CO)C(=O)N[C@H](C(=O)N[C@H](C(=O)N[C@@H](Cc1ccc(O)cc1)C(=O)N[C@@H](CC(=O)O)C(N)=O)[C@@H](C)CC)C(C)C` [RIPR_019] (Ac-NEIFHTIIYLKKKIGNSVIYD-NH2), for which the IC50 on HLA-DRB1*0101 was 346 nM; at HLA-DRB1*0401, 3.03 µM; at HLA-DRB1*0701 it was 3.86 µM; on HLA-DRB1*0801 it was 1.35 µM; at HLA-DRB1*1101, 0.066 µM; at HLA-DRB1*1301 it was 3.49 µM. In addition, the IC50 at HLA-DRB1*1501 was 898 nM.
As to `CC[C@H](C)[C@H](NC(=O)[C@H](CC(N)=O)NC(=O)[C@H](CCC(N)=O)NC(=O)[C@H](CC(N)=O)NC(=O)[C@H](CC(N)=O)NC(=O)[C@H](Cc1ccccc1)NC(=O)[C@@H](NC(=O)[C@H](CS)NC(=O)[C@H](CC(C)C)NC(=O)[C@H](Cc1ccc(O)cc1)NC(=O)[C@H](CC(=O)O)NC(=O)[C@@H](N)Cc1ccc(O)cc1)C(C)C)C(=O)N[C@H](C(=O)N[C@@H](CO)C(=O)N[C@@H](CC(=O)O)C(=O)N[C@@H](CCCCN)C(=O)N[C@@H](CC(N)=O)C(N)=O)[C@@H](C)O` [RIPR_007] (H-YDYLCVFNNQNITSDKN-NH2), the IC50 on HLA-DRB1*0101 was 2780 nM; at HLA-DRB1*0401 it was 4.6 µM; at HLA-DRB1*0701, 3.05 µM; at HLA-DRB1*0801, 99 µM; at HLA-DRB1*1101 it was 8.65 µM; on HLA-DRB1*1301, 9.26 µM. Besides, on HLA-DRB1*1501, the IC50 was determined as 165 nM.
As for `CC[C@H](C)[C@H](NC(=O)[C@H](CC(N)=O)NC(=O)[C@H](Cc1ccc(O)cc1)NC(=O)[C@H](CC(N)=O)NC(=O)[C@H](CO)NC(=O)[C@H](CC(C)C)NC(=O)[C@H](CCC(=O)O)NC(=O)[C@H](CCCCN)NC(=O)[C@H](Cc1ccccc1)NC(=O)[C@H](Cc1c[nH]cn1)NC(=O)[C@H](Cc1ccc(O)cc1)NC(=O)[C@H](CCC(N)=O)NC(=O)[C@@H](N)CC(C)C)C(=O)N[C@@H](C)C(=O)N[C@@H](CC(N)=O)C(=O)N[C@@H](CO)C(=O)N[C@H](C(=O)N[C@@H](CC(=O)O)C(N)=O)[C@@H](C)CC` [RH5_005] (H-LQYHFKELSNYNIANSID-NH2), the IC50 on HLA-DRB1*0101 was 18 nM; on HLA-DRB1*0401 it was 2.86 µM; on HLA-DRB1*0701, 3.79 µM; at HLA-DRB1*0801, 19.4 µM; at HLA-DRB1*1101 it was 11.3 µM; at HLA-DRB1*1301, 50.9 µM. Besides, the IC50 on HLA-DRB1*1501 came to 25 nM.

One may read the IC50 as the concentration needed to halve the response being measured.
